Measurements taken from patent US20210361549A1, “ANTIPERSPIRANT” (MANDOM CORPORATION, priority 2018, published 2021).

Experiments:
[1] = tested on: armpit sweating of expert panelists; assay: Test Example 3: degree of sweating scored by expert panelists after application to armpit and light exercise; type: in vivo, human; settings: applied to each armpit of ten expert panelists, light exercise; compared with control sample of Comparative Example 1 (PBS)
Excerpt: The antiperspirant obtained in Example 1 is applied to each armpit of ten expert panelists having the same proficiency in evaluation skill, and then the expert panelists are subjected to a light exercise. Thereafter, each of the expert panelists gives a score of the degree of sweating on the basis of the following criteria for evaluation. In addition, each of the expert panelists gives a score of the degree of sweating in the same manner as in the above except that the control sample of Comparative Example 1 is used in place of the antiperspirant obtained in Example 1. The average of the scores given by the expert panelists is calculated.
0 point: sweat in a large amount.
2 points: slightly sweat.

[2] = tested on: secretory duct of the sweat gland (whole sweat glands); assay: Test Example 1: time-lapse imaging of isolated whole sweat glands, moving distance of nuclei after pyrocarpin stimulation; type: cell-based, human; settings: for movement of the secretory duct of the sweat gland: observed in the time-lapse photographed image, antiperspirant contacted with whole sweat glands
Method: As skin tissues, skin tissues which were refrigerated immediately after isolating from living donors and stored at 4° C. for 15 hours were used. The skin tissues were immersed in PBS containing 10 μM staining agent (Neutral Red), to label the sweat glands included in the skin tissues. Next, the dermis of each of the skin tissues including the staining agent was finely cut to obtain dermal segments. Whole sweat glands were collected from the dermal segments by using tweezers under an optical microscope.
The whole sweat glands obtained in Test Example 1(1) were immersed in the staining reagent mixture obtained in Production Example 1 at room temperature (24° C.) for 30 minutes, to stain the whole sweat glands. The stained whole sweat glands were washed with PBS.
The washed whole sweat glands obtained in Test Example 1(2) were allowed to stand on a glass bottom dish under a stereoscopic microscope manufactured by Leica under the trade name of M125. The collagen-containing liquid obtained in Production Example 2 was added dropwise to the whole sweat glands that were allowed to stand on the glass bottom dish. Next, the above-mentioned glass bottom dish was incubated at 37° C. for 5 minutes to gelate the collagen type I-A contained in the collagen-containing liquid placed on the whole sweat glands. Thereafter, 300 μL of PBS was added onto the above-mentioned whole sweat glands so as not to dry the whole sweat glands. Thus, the whole sweat glands were held on the glass bottom dish used as a support with the collagen type I-A so that the position of each of the whole sweat glands was retained, to obtain an observation sample.
While adhesion of the whole sweat glands to the glass bottom dish with the gelated collagen type I-A was confirmed under the stereoscopic microscope, an aliquot of Dulbecco's phosphate buffer [manufactured by Gibco, Catalog No. 14190-144] was added to the glass bottom dish used as a support.
The antiperspirant obtained in Example 1 in an amount of 3 μL was contacted with the whole sweat glands on the glass bottom dish in the observation sample. The observation of the whole sweat glands on the glass bottom dish with the time-lapse imaging was initiated by using a confocal laser scanning microscope for biological uses [inverted microscope manufactured by Olympus Corporation under the trade name of IX-83 equipped with a device manufactured by Olympus Corporation under the trade name of FV 1200]. At that time, the whole sweat glands were visualized by detecting fluorescence derived from the nuclear staining reagent bound to the nuclei and fluorescence derived from the cytoskeleton-staining reagent bound to the cytoskeleton. After 600 seconds passed from the initiation of the observation, 30 μL of the sweat gland-stimulating agent obtained in Production Example 3 was contacted with the whole sweat glands on the glass bottom dish, and thereafter the observation with the time-lapse imaging was continued. […]
Next, five cells were selected from a cell group in the lumen of the secretory duct in the time-lapse photographed image of the whole sweat glands, and five cells were selected from a cell group in the outer periphery of the secretory duct. […] In order to measure a moving distance of the nuclei of the cell, firstly changes (differences) in coordinates between consecutive frames were calculated by using X-coordinate and Y-coordinate of the nuclei of each cell in accordance with the formulae (XI) and (XII): […]

[3] = tested on: secretory duct of the sweat gland (whole sweat glands); assay: Test Example 2: time-lapse imaging of isolated whole sweat glands, average moving distance of nuclei of secretory duct cells; type: cell-based, human; settings: antiperspirant as prepared contacted first; stimulating agent of Production Example 4 (10 mM pyrocalpin); five cells; FIG. 3 to FIG. 8
Method: Each of the antiperspirants obtained in Examples 2 to 7 was contacted with the whole sweat glands respectively, and change of the average of moving distances of nuclei of cells of a secretory duct of the sweat gland was examined with passage of time. Whether or not nuclei of cells of the secretory duct of the sweat gland moved was determined based on the results shown in FIG. 3 to FIG. 8, and evaluated in accordance with the following criteria for evaluation. […] The maximum value of the average of moving distances of nuclei of cells of the secretory duct of the sweat gland exceeds 1 μm: the nuclei of cells of the secretory duct of the sweat glands are moved.

| Compound | average of the scores of the degree of sweating (0 to 4 points) [1] | movement of the secretory duct of the sweat gland [2] | movement of nuclei of cells of the secretory duct of the sweat gland (maximum of average of moving distances) [3] | other results |
| --- | --- | --- | --- | --- |
| CC1(C(=O)O)CCC2(C)CCC3(C)C(=CC(=O)C4C5(C)CCC(OC(=O)CCC(=O)O)C(C)(C)C5CCC43C)C2C1 (centres unmarked) [Example 1] | tends to be higher | suppressed |  | movement of nuclei of the cells of the lumen of the secretory duct of the sweat gland ([2]; 3 μL antiperspirant contacted first, 30 μL sweat gland-stimulating agent (100 mM pyrocarpin) after 600 seconds, FIG. 2A white circle): hardly moved; movement of nuclei of the cells of the outer periphery of the secretory duct of the sweat gland ([2]; 3 μL antiperspirant contacted first, 30 μL sweat gland-stimulating agent (100 mM pyrocarpin) after 600 seconds, FIG. 2A white triangle): hardly moved |
| CC1(C)[C@@H](O)CC[C@]2(C)[C@H]3C(=O)C=C4[C@@H]5C[C@@](C)(C(=O)O)CC[C@]5(C)CC[C@@]4(C)[C@]3(C)CC[C@@H]12 [Example 3, 18β-glycyrrhetinic acid] |  |  | hardly moved |  |
| α-amylin [Example 6] |  |  | hardly moved |  |
| CC1(C(=O)O)CCC2(C)CCC3(C)C(=CC(=O)C4C5(C)CCC(OC6OC(C(=O)O)C(O)C(O)C6OC6OC(C(=O)O)C(O)C(O)C6O)C(C)(C)C5CCC43C)C2C1 (centres unmarked) [formula (X)] | the same tendency as the antiperspirant obtained in Example 1 | the same tendency as the antiperspirant obtained in Example 1 |  |  |
| CC1(C)CC[C@]2(C(=O)O)CC[C@]3(C)C(=CC[C@@H]4[C@@]5(C)CC[C@H](O)C(C)(C)[C@@H]5CC[C@]43C)[C@@H]2C1 [Example 5, oleanolic acid] |  |  | hardly moved |  |
| β-amylin [Example 7] |  |  | hardly moved |  |
| CC1(C(=O)O)CCC2(C)CCC3(C)C(=CC(=O)C4C5(C)CCC(O)C(C)(C)C5CCC43C)C2C1 (centres unmarked) [formula (IX)] | the same tendency as the antiperspirant obtained in Example 1 | the same tendency as the antiperspirant obtained in Example 1 |  |  |
| C[C@H]1[C@H](C)CC[C@]2(C(=O)O)CC[C@]3(C)C(=CC[C@@H]4[C@@]5(C)CC[C@H](O)C(C)(C)[C@@H]5CC[C@]43C)[C@H]12 [Example 4, ursolic acid] |  |  | hardly moved |  |
| CC1(C)[C@@H](O)CC[C@]2(C)[C@H]3C(=O)C=C4[C@H]5C[C@@](C)(C(=O)O)CC[C@]5(C)CC[C@@]4(C)[C@]3(C)CC[C@@H]12 [Example 2, 18α-glycyrrhetinic acid] |  |  | hardly moved |  |
